How the values were obtained:
[1] = biological target: binding between NRF2 and KEAP1 (Homo sapiens (Human), UniProt Q14145); assay: Binding assay: inhibition of binding between NRF2 and KEAP1 by BRET (NanoLuc-NRF2 and KEAP1-HaloTag cell lysates); conditions: Test Example 1-1; NRF2-KEAP1 BRET; N=2
Description: The inhibitory activity of each compound on the binding between NRF2 and KEAP1 was measured by bioluminescence resonance energy transfer (BRET) assay. A plasmid having human NRF2 (Original Clone ID: ha01449s1) sequence fused with NanoLuc (19 kDa, Promega) at the N-terminal was transduced into HCE-T cells (immortalized human corneal epithelial cells) using FuGENE HD (Promega). 48 hours after transduction, the cell lysate was collected and used as an NRF2-expressing cell lysate. A plasmid having human KEAP1 (Original Clone ID: cs00328) sequence fused with HaloTag (33 kDa, Promega) at the C-terminal was transduced into HCE-T cells using FuGENE HD (Promega). After 24 hours, HaloTag Nano BRET 618 Ligand (Promega) was added to the medium. The cell lysate cultured for 24 hours after the addition was used as a KEAP1-expressing cell lysate.
The NRF2-expressing cell lysate and the KEAP1-expressing cell lysate were adjusted so that the luminescence and fluorescence intensities per well were constant. Tables 1 and 2 show the formulation of each reaction solution.
Each test substance at a concentration 100 times higher than the test concentration was dissolved in dimethylsulfoxide for adjustment. 49 μL of KEAP1 solution was added to a 96-well polystyrene microplate (FALCON) to which 1 μL of each test substance solution was added, followed by incubation for 15 minutes. Then, 50 μL of NRF2 solution was added to the above solution, followed by incubation for 1 hour. To measure the binding between NRF2 and KEAP1, NanoBRET Nano-Glo Substrate (Promega) diluted with Opti-Mem (Thermo Fisher Scientific) was added, followed by shaking for 30 seconds. Then, luminescence and fluorescence were measured using the GloMax Discover System (Promega). A 495-nm short pass filter and a 600-nm long pass filter were respectively used to measure donor and acceptor emission values. A value obtained by dividing the acceptor emission value by the donor emission value was regarded as BRET value. A BRET value when the compound was not added, and a BRET value when the KEAP1 solution was not added were respectively used as binding rates of 100% and 0%, and the binding rate when the compound was added was calculated. Further, using this binding rate, the 50% binding inhibitory activity concentration (IC50) was calculated from the following formula. The test was performed at N=2.
IC50(M)=10^(LOG(A/B)×(50−C)/(D−C)+LOG(B)) • A: higher concentration out of 2 close concentrations across the inhibition rate of 50% • B: lower concentration out of 2 close concentrations across the inhibition rate of 50% • C: inhibition rate at B • D: inhibition rate at A
(§1) Compounds A1/A2, compounds B1/B2, compounds C1/C2, and compounds D1/D2 were used as test substances. Binding assay and reporter assay were performed as in Test Example 1-1 and Test Example 1-2.

NRF2 = assay: Reporter assay: NRF2 activating action in HCE-T/ARE-Luc cells (ARE luciferase reporter gene assay); type: cell-based, human; conditions: Homo sapiens; Test Example 1-2; HCE-T/ARE-Luc cells, 24 hours; N=3
Description: The NRF2 activating action of the compounds on cells was measured by a reporter gene assay. pGL4.37[luc2P/ARE/Hygro] (Promega) was introduced into HCE-T cells using FuGENE HD. Cells that acquired drug resistance as a result of transduction were screened by culture in the presence of 50 μg/mL hygromycin, and a clone strain, HCE-T/ARE-Luc cells, was established.
HCE-T/ARE-Luc cells were cultured using DMEM/F12 medium containing 10 ng/mL hEGF, 5 μg/mL insulin, 5% FBS, and 40 μg/mL gentamicin. As the assay medium, a medium with the same composition as that for the culture was prepared using phenol red-free DMEM/F12 medium.
HCE-T/ARE-Luc cells were seeded in a 96-well polystyrene microplate (FALCON) with 10000 cells per well. The cells were incubated in a CO2 incubator at 37° C. for 16 hours to allow for cell adhesion. The test substance was dissolved in dimethylsulfoxide to prepare a solution at a concentration 1000 times higher than the test concentration. The cells were treated with the test substance diluted 1000-fold with the assay medium and cultured for 24 hours. When measuring the activity of the reporter, the medium containing the test substance was removed, and then a new medium and a substrate of ONE-GloEX Luciferase Assay System (Promega) were added. The plate was shaken for 1 minute and then allowed to stand at ordinary temperature for 10 minutes, and luminescence was detected using the GloMax Discover System (Promega).
The test was performed at N=3, and the 50% activation concentration of each test substance was calculated by creating a calibration curve between two concentrations across the luminescence incensity of 50%.
as §1

Chain of binding between NRF2 and KEAP1 (Q14145 whole entry, the tested form may be a part): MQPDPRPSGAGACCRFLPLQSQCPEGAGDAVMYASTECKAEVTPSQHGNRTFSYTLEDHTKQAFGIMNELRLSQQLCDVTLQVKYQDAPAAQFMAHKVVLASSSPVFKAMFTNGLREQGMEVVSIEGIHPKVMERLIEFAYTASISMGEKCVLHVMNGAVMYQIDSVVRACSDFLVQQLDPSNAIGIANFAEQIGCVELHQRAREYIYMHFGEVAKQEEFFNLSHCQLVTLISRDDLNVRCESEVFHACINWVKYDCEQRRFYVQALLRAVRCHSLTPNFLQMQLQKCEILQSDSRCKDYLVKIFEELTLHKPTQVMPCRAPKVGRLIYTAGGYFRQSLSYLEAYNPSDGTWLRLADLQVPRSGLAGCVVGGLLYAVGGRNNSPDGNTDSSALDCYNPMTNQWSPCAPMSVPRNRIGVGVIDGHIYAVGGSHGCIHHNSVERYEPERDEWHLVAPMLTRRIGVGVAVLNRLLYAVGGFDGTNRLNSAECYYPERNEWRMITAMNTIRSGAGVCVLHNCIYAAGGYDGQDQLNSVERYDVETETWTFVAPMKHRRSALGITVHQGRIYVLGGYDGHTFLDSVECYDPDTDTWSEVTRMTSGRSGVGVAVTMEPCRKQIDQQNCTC

Compound	IC50 [1]	EC50 (NRF2)
CC[C@@H]1CN(Cc2cc(C(c3cc(F)c(C(C)=O)s3)C(C)(C)C(=O)O)ccc2C)S(=O)(=O)c2ccccc2O1 (stereo partly drawn) [Compound 11, 3-(5-acetyl-4-fluorothiophen-2-yl)-3-(3-{[(R)-4-ethyl-1,1-dioxide-3,4-dihydro-2H-benzo[b][1,4,5]oxathiazepin-2-yl]methyl}-4-methylphenyl)-2,2-dimethylpropanoic acid]	0.23 nM	–
CC(=O)c1ccc(C(c2ccc(C)c(CN3C[C@@H](C)Oc4ccccc4S3(=O)=O)c2)C(C)(C)C(=O)O)s1 (stereo partly drawn) [Compound 12, 3-(5-acetylthiophen-2-yl)-2,2-dimethyl-3-(4-methyl-3-{[(R)-4-methyl-1,1-dioxide-3,4-dihydro-2H-benzo[b][1,4,5]oxathiazepin-2-yl]methyl}phenyl)propanoic acid]	0.28 nM	–
CC[C@@H]1CN(Cc2cc(C(CC(=O)O)c3sc(C(C)=O)cc3C)ccc2C)S(=O)(=O)c2ccccc2O1 (stereo partly drawn) [Compound 14, 3-(5-acetyl-3-methylthiophen-2-yl)-3-(3-{[(R)-4-ethyl-1,1-dioxide-3,4-dihydro-2H-benzo[b][1,4,5]oxathiazepin-2-yl]methyl}-4-methylphenyl)propanoic acid]	1.3 nM	–
CC[C@@H]1CN(Cc2cc(C(CC(=O)O)c3csc(C(C)=O)c3)ccc2C)S(=O)(=O)c2ccccc2O1 (stereo partly drawn) [Compound 15, 3-(5-acetylthiophen-3-yl)-3-(3-{[(R)-4-ethyl-1,1-dioxide-3,4-dihydro-2H-benzo[b][1,4,5]oxathiazepin-2-yl]methyl}-4-methylphenyl)propanoic acid]	1.4 nM	–
CC[C@@H]1CN(Cc2cc(C(CC(=O)O)c3cccs3)ccc2C)S(=O)(=O)c2ccccc2O1 (stereo partly drawn) [Compound 17, 3-(3-{[(R)-4-ethyl-1,1-dioxide-3,4-dihydro-2H-benzo[b][1,4,5]oxathiazepin-2-yl]methyl}-4-methylphenyl)-3-(thiophen-2-yl)propanoic acid]	28 nM	–
CC[C@@H]1CN(Cc2cc(C(CC(=O)O)c3ccc(C#N)s3)ccc2C)S(=O)(=O)c2ccccc2O1 (stereo partly drawn) [Compound 19, 3-(5-cyanothiophen-2-yl)-3-(3-{[(R)-4-ethyl-1,1-dioxide-3,4-dihydro-2H-benzo[b][1,4,5]oxathiazepin-2-yl]methyl}-4-methylphenyl)propanoic acid]	3.1 nM	–
CC[C@@H]1CN(Cc2cc(C(CC(=O)O)c3ccc(C(=O)NC)s3)ccc2C)S(=O)(=O)c2ccccc2O1 (stereo partly drawn) [Compound 21, 3-(3-{[(R)-4-ethyl-1,1-dioxide-3,4-dihydro-2H-benzo[b][1,4,5]oxathiazepin-2-yl]methyl}-4-methylphenyl)-3-[5-(methylcarbamoyl)thiophen-2-yl]propanoic acid]	4.6 nM	–
CC[C@@H]1CN(Cc2cc(C(CC(=O)O)c3csc(C(=O)NC)c3)ccc2C)S(=O)(=O)c2ccccc2O1 (stereo partly drawn) [Compound 22, 3-(3-{[(R)-4-ethyl-1,1-dioxide-3,4-dihydro-2H-benzo[b][1,4,5]oxathiazepin-2-yl]methyl}-4-methylphenyl)-3-[5-(methylcarbamoyl)thiophen-3-yl]propanoic acid]	6.1 nM	–
CC[C@@H]1CN(Cc2cc(C(CC(=O)O)c3ccc(C(N)=O)s3)ccc2C)S(=O)(=O)c2ccccc2O1 (stereo partly drawn) [Compound 23, 3-(5-carbamoylthiophen-2-yl)-3-(3-{[(R)-4-ethyl-1,1-dioxide-3,4-dihydro-2H-benzo[b][1,4,5]oxathiazepin-2-yl]methyl}-4-methylphenyl)propanoic acid]	0.39 nM	–

The remaining lines, values ahead:

IC50 [1]	EC50 (NRF2)	Compound
0.25 nM	9 nM	CC[C@@H]1CN(Cc2cc(C(c3cc(C)c(C(C)=O)s3)C(C)C(=O)O)ccc2C)S(=O)(=O)c2ccccc2O1 (stereo partly drawn) [Compound 2, 3-(5-acetyl-4-methylthiophen-2-yl)-3-(3-{[(R)-4-ethyl-1,1-dioxide-3,4-dihydro-2H-benzo[b][1,4,5]oxathiazepin-2-yl]methyl}-4-methylphenyl)-2-methylpropanoic acid]
0.5 nM	–	CC(=O)c1ccc(C(c2ccc(C)c(CN3CC(CCOCc4ccccc4)Oc4ccccc4S3(=O)=O)c2)C(C)C(=O)O)s1 (stereo not shown) [Compound 13, 3-(5-acetylthiophen-2-yl)-3-[3-({4-[2-(benzyloxy)ethyl]-1,1-dioxide-3,4-dihydro-2H-benzo[b][1,4,5]oxathiazepin-2-yl}methyl)-4-methylphenyl]-2-methylpropanoic acid]
0.2 nM	–	CC[C@@H]1CN(Cc2cc(C(c3ccc(C(C)=O)s3)C(C)C(=O)O)ccc2C)S(=O)(=O)c2cnccc2O1 (stereo partly drawn) [Compound 16, 3-(5-acetylthiophen-2-yl)-3-(3-{[(R)-4-ethyl-1,1-dioxide-3,4-dihydro-2H-pyrido[4,3-b][1,4,5]oxathiazepin-2-yl]methyl}-4-methylphenyl)-2-methylpropanoic acid]
0.39 nM	–	CC[C@@H]1CN(Cc2cc(C(c3ccc(C(C)=O)s3)C(C)(C)C(=O)O)ccc2C)S(=O)(=O)c2cnccc2O1 (stereo partly drawn) [Compound 48, 3-(5-acetylthiophen-2-yl)-3-(3-{[(R)-4-ethyl-1,1-dioxide-3,4-dihydro-2H-pyrido[4,3-b][1,4,5]oxathiazepin-2-yl]methyl}-4-methylphenyl)-2,2-dimethylpropanoic acid]
0.31 nM	–	CC[C@@H]1CN(Cc2cc(C(c3cc(F)c(C(C)=O)s3)C(C)(C)C(=O)O)ccc2C)S(=O)(=O)c2cnccc2O1 (stereo partly drawn) [Compound 49, 3-(5-acetyl-4-fluorothiophen-2-yl)-3-(3-{[(R)-4-ethyl-1,1-dioxide-3,4-dihydro-2H-pyrido[4,3-b][1,4,5]oxathiazepin-2-yl]methyl}-4-methylphenyl)-2,2-dimethylpropanoic acid]
0.19 nM	–	CC[C@@H]1CN(Cc2cc(C(c3cc(OC)c(C(C)=O)s3)C(C)(C)C(=O)O)ccc2C)S(=O)(=O)c2cnccc2O1 (stereo partly drawn) [Compound 50, 3-(5-acetyl-4-methoxythiophen-2-yl)-3-(3-{[(R)-4-ethyl-1,1-dioxide-3,4-dihydro-2H-pyrido[4,3-b][1,4,5]oxathiazepin-2-yl]methyl}-4-methylphenyl)-2,2-dimethylpropanoic acid]
0.41 nM	–	CC[C@@H]1CN(Cc2cc(C(c3cc(OC)c(C(C)=O)s3)C(C)C(=O)O)ccc2C)S(=O)(=O)c2cnccc2O1 (stereo partly drawn) [Compound 51, 3-(5-acetyl-4-methoxythiophen-2-yl)-3-(3-{[(R)-4-ethyl-1,1-dioxide-3,4-dihydro-2H-pyrido[4,3-b][1,4,5]oxathiazepin-2-yl]methyl}-4-methylphenyl)-2-methylpropanoic acid]
0.27 nM	–	CC[C@@H]1CN(Cc2cc(C(c3cc(F)c(C(C)=O)s3)C(C)C(=O)O)ccc2C)S(=O)(=O)c2cnccc2O1 (stereo partly drawn) [Compound 52, 3-(5-acetyl-4-fluorothiophen-2-yl)-3-(3-{[(R)-4-ethyl-1,1-dioxide-3,4-dihydro-2H-pyrido[4,3-b][1,4,5]oxathiazepin-2-yl]methyl}-4-methylphenyl)-2-methylpropanoic acid]
2.3 nM	–	CC[C@@H]1CN(Cc2cc(C(CC(=O)O)c3ccc(C(C)=O)s3)ccc2C)S(=O)(=O)c2cnccc2O1 (stereo partly drawn) [Compound 53, 3-(5-acetylthiophen-2-yl)-3-(3-{[(R)-4-ethyl-1,1-dioxide-3,4-dihydro-2H-pyrido[4,3-b][1,4,5]oxathiazepin-2-yl]methyl}-4-methylphenyl)propanoic acid]
